From BindingDB's records for doi:10.1021/acs.jmedchem.1c01473 (Chapman University School of Pharmacy, 2022)

Target: Small conductance calcium-activated potassium channel protein 2 (Rattus norvegicus, UniProt P70604)
Test: Potentiation of rat KCa2.2a expressed in HEK293 cells assessed as increase in calcium response at -90 mV holding potential measured at 1 to 2 days by patch clamp electrophysiology

Small conductance calcium-activated potassium channel protein 2, sequence (P70604 whole entry): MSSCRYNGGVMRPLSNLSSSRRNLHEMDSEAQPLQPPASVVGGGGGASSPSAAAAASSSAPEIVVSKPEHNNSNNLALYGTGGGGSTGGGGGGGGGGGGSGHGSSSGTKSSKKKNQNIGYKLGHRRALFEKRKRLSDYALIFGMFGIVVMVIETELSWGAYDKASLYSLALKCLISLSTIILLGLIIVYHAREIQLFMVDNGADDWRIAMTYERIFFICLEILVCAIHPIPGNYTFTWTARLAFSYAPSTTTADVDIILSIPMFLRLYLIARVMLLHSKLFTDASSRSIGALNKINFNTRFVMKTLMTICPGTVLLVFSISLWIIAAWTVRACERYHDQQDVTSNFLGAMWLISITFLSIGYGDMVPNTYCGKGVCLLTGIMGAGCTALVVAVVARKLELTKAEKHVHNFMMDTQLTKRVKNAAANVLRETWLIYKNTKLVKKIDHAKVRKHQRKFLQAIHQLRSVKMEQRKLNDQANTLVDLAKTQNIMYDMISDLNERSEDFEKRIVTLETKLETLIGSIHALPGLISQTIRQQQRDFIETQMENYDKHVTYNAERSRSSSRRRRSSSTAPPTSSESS

Compound	EC50
Cc1cc(Nc2ccc(F)c(Cl)c2)nc(-n2nc(C)cc2C)n1	110 nM
Cc1cc(Nc2cc(Cl)ccc2F)nc(-n2nc(C)cc2C)n1	91 nM
